These results are taken from patent US20160122315A1, “CRYSTALLINE IMATINIB MESYLATE PROCESS” (SHILPA MEDICARE LIMITED, priority 2013, published 2016).

For data set [1] the following is noted: crystal forms disclosed by Zimmermann et al, U.S.'051; cited from earlier work.
For data set [2] the following is noted: compared with the α-crystal form; disclosed in U.S.'051; cited from earlier work.
The nature of data set [3]: Hygroscopicity of crystalline Form-SA. It counts as physicochemical. Conditions: crystalline solid.

Like-named read-outs stand apart in the source and are kept apart here.

With `CS(=O)(=O)O.Cc1ccc(NC(=O)c2ccc(CN3CCN(C)CC3)cc2)cc1Nc1nccc(-c2cccnc2)n1` [a-crystal form], the hygroscopicity entry in data set [1] was “hygroscopic”.
In the case of `CS(=O)(=O)O.Cc1ccc(NC(=O)c2ccc(CN3CCN(C)CC3)cc2)cc1Nc1nccc(-c2cccnc2)n1` [β-crystal form], the hygroscopicity entry in data set [1] is listed as “less hygroscopic than the α-crystal form”. In data set [2], the thermodynamic stability result was “thermodynamically more stable at temperatures below 140 °C”.
`Cc1ccc(NC(=O)c2ccc(CN3CCN(C)CC3)cc2)cc1Nc1nccc(-c2cccnc2)n1` [Form-SA, 4-[(4-Methyl-1-piperazinyl)methyl]-N-[4-methyl-3-[[4-(3-pyridinyl)-2-pyrimidinyl]amino]-phenyl]benzamide methanesulfonate]: the hygroscopicity entry in data set [3] is recorded as “non-hygroscopic”.
